Data taken from patent publication US20230084927A1, “GLUCOSE UPTAKE INHIBITORS AND USES THEREOF” (METABOMED LTD., priority 2019, published 2023).
Where two headings read alike, the source gives them in different places.

Assays:
SDH-WT cells = assay: Cellular / differential toxicity assay (CellTiter-Glo, 3 days); assay type: cell-based, murine; details: for EC50: Mus musculus, 72 h
Procedure, shortened: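 Isogenic SDHB-deficient (HRAS-transformed SDH-KO) and SDH-WT cells grown in DMEM-F12 with 1 mM glutamine and 3% FBS, plated with compound (10-point dilution from 10 uM to 0.0065 uM or lower) for 3 days at 37 °C, 5% CO2. Viability by CellTiter-Glo luminescence; EC50 calculated.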

[1] = system: 2-DeoxyGlucose phosphorylation in murine SDH-WT cells; assay: 2 DG phosphorylation assay; assay type: cell-based; details: Mus musculus, 0.25 h, 15 min, LC-MS
Method: IC50 of compound 145 and GluT1 inhibitor […] in a 2 DG phosphorylation assay was done using murine SDH-WT cells. The cells were treated for 15 min with the indicated compound at different concentrations in the presence of 2 DG. 2 DG phosphorylation was determined by LC-MS analysis and the inhibition IC50 was determined by Prism software.

[2] = system: m+3 lactate secretion (glycolysis) in SDH-KO cells; assay: Glycolysis inhibition (IC50 Lactate m+3); assay type: cell-based; details: 1 h, 25 mM 13C-glucose, one hour
Method: (§1) Glycolysis Inhibition (IC50 Lactate m+3)
(§2) Cell were plated in DMEM, 25 mM Glucose, 1 mM Pyruvate, 1 mM Glutamine and 10% Dialyzed serum in 96 well plates in triplicates. The day after the medium was replaced to fresh medium with 25 mM ^13C-glucose and treated with different concentrations of the compounds as indicated. One hour later the medium was collected and the level of m+3 lactate was determined by LC-MS. The IC50 of inhibition of m+3 lactate secretion into the medium was calculated with Prism.

[3] = system: m+3 lactate secretion (glycolysis) in SDH-WT cells; assay: Glycolysis inhibition (IC50 Lactate m+3); assay type: cell-based; details: 1 h, 25 mM 13C-glucose, one hour
Method: as §1, §2

UOK269 (SDHB-def.) RCC = assay: Cell viability in SDH-deficient/proficient isogenic pairs; assay type: cell-based, Human
Method: (§3) The cells were grown in DMEM F12 supplemented with 1 mM Glutamine+3% FBS were treated with different concentrations of the indicated compounds. Cell viability was determined 72 hours later by CellTiter Glue reagent (Promega), the luminescence was measured with ClarioStar reader (BMG) and the EC50s were calculated by Prism. Murine SDHB-WT/KO, HRAS transformed isogenic pair (FIG. 12A); UOK269, Human Tumor-derived SDHB-deficient RCC in their WT counterpart with re-expression of SDHB (FIG. 12B); and ACHN, RCC cells, and their SDHB-KO (SDHB CRISPRed out) isogenic cells (FIG. 12C).

[4] = system: UOK269-WT (re-expression of SDHB); assay: as above; assay type: cell-based, Human
Method: as §3

[5] = system: ACHN SDHB −/− (SDHB CRISPRed out); assay: as above; assay type: cell-based
Method: as §3

ACHN WT, RCC cells = assay: as above; assay type: cell-based
Method: as §3

[6] = target: T1, GLUT1 transporter (DLD1 cells) (Homo sapiens, UniProt P11166); assay: Glucose transporter selectivity assay; assay type: cell-based; details: 5 mM glucose, 1 uM Rotenone, 15 min, read-out: IC50 (nM) DLD1-WT Glust1
T1 construct: DLD1 cells for GLUT1 transporter; endogenous in cells; host or cells: DLD1 (DLD1-WT)
Method: (§4) Glucose transporter selectivity assays were done as described by Siebeneicher et al (ChemMedChem 2016, 11, 1-12) with the following adjustments; DLD1 cells for GLUT1 transporter, DLD1-GLUT1−/− cells (Horizon discovery) for GLUT3 transporter and DLD1-GLUT1−/− overexpressing hGLUT2 cells for GLUT2 transporter. The cells were plated overnight in 96-well plate at 80% confluency in starvation medium (DMEM without glucose, 0.5 mM glutamine, 1 mM pyruvate and 1% FBS). The cells were then pretreated for 30 min with 1 uM Rotenone and the inhibitors (compound 145) at different concentrations. The assay was initiated by adding glucose (5 mM for DLD1 cells, 10 mM for DLD1-Glut1−/−) or fructose (10 mM for DLD1-Glut1−/−(hGLUT2) cells) and the plates were incubated for 15 min at 37° C. At the end of the incubation Cell-titer Glo was added to the wells and luminescence was measured. The inhibition IC50 was calculated using Prism software.

[7] = target: T2, GLUT2 transporter (DLD1-GLUT1−/− overexpressing hGLUT2 cells) (Homo sapiens, UniProt P11168); assay: Glucose transporter selectivity assay; assay type: cell-based; details: 10 mM fructose, 1 uM Rotenone, 15 min, read-out: IC50 (nM) DLD-Glut1−/− (Glut2) Glut2
T2 construct: expressed in transfected cells; host or cells: DLD1-GLUT1−/−
Method: as §4

[8] = target: T3, GLUT3 transporter (DLD1-GLUT1−/− cells) (Homo sapiens, UniProt P11169); assay: Glucose transporter selectivity assay; assay type: cell-based; details: 10 mM glucose, 1 uM Rotenone, 15 min, read-out: IC50 (nM) DLD-Glut1−/− Glut3
T3 construct: DLD1-GLUT1−/− cells (Horizon discovery) for GLUT3 transporter; host or cells: DLD1-GLUT1−/−
Method: as §4

[9] = Homo sapiens, tumor-derived, 72 hours
[10] = Homo sapiens, cancer cells, 72 hours

T2 sequence (P11168 whole entry): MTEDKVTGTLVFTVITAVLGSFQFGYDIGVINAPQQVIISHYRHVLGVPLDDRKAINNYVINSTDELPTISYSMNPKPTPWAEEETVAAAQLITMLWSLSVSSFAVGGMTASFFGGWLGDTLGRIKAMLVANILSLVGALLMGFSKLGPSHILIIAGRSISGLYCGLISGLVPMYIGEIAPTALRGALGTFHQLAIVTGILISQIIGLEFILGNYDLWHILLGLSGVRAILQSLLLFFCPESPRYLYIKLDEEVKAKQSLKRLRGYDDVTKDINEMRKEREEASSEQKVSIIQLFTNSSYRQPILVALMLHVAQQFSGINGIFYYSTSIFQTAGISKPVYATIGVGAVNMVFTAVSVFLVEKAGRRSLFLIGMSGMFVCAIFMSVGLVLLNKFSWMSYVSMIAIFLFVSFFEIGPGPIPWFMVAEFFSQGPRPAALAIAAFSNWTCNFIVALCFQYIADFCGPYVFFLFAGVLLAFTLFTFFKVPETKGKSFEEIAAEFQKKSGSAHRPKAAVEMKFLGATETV
T3 sequence (P11169 whole entry): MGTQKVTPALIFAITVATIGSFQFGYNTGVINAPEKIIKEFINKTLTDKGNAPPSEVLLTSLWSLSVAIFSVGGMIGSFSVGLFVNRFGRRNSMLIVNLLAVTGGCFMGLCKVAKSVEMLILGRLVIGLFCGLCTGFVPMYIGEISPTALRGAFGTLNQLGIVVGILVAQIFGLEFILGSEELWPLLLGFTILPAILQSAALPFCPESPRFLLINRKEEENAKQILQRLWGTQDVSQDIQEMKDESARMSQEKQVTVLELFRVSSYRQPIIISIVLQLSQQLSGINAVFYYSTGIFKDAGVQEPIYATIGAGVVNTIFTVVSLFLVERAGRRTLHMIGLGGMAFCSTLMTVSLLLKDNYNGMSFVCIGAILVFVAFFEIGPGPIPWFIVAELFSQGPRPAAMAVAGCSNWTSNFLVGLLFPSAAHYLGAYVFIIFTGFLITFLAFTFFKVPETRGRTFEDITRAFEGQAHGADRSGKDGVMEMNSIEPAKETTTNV
T1 sequence (P11166 whole entry): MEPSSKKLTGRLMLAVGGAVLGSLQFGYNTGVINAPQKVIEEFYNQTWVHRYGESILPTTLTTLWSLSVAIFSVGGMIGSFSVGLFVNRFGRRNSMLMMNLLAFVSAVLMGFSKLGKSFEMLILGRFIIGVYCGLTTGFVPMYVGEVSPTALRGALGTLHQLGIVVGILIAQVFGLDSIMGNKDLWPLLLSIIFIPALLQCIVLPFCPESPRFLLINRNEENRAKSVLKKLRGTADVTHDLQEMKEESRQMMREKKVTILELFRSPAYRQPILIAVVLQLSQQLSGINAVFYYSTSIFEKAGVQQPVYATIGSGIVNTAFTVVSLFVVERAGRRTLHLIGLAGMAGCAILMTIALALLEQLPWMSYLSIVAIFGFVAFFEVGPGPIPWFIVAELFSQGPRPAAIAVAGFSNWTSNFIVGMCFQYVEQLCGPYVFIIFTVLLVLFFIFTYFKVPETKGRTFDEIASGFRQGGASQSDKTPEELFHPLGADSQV

IC50 [1]: 0.0097 µM
IC50 [2]: 0.0061 µM
IC50 [3]: 0.0017 µM
EC50 [5, 10]: 0.0084 µM
EC50 (ACHN WT, RCC cells; [10]): 13.8 µM
IC50 [6]: 19 nM
IC50 [7]: 14 nM
IC50 [8]: 2 nM
SMILES: CC1(C)Cc2nc3sc4c(NCCc5ccc6[nH]cnc6c5)ncnc4c3cc2CO1 [Compound 145]
Ratio BAY-876/COMP 145 (SDH-WT cells; Murine SDH-WT): 0.4
EC50 (SDH-WT cells; Murine SDH-WT, transformed, 72 hours, Example 8, read-out: EC50): 0.34 µM
EC50 (SDH-WT cells; SDH-WT cells, 72 hours, Example 7, read-out: EC50 Tox): 0.139 µM
EC50 (SDH-WT cells; toxicity, SDH-WT cells, 3 days, CellTiter-Glo, read-out: EC50 (uM) SDH-WT): < 1 µM
Ratio BAY-876/COMP 145 (UOK269 (SDHB-def.) RCC): 8.8
EC50 (UOK269 (SDHB-def.) RCC; [9]): 0.0017 µM
Ratio BAY-876/COMP 145 [4]: 2.9
EC50 [4, 9]: 1.83 µM
Ratio BAY-876/COMP 145 [5]: 30
Ratio BAY-876/COMP 145 (ACHN WT, RCC cells): 1.7
